PubChem BioAssay (NCI)
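These data come from cells grown in 96-well plates and exposed to compound for 48 hours at five concentrations. At the GI50, growth is halved. TGI denotes the concentration required for complete inhibition of growth.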

Key:
Test in all cases: NCI anticancer screen, dose series, 48 h
[1] = test system: 786-0 renal
[2] = test system: A498 renal
[3] = test system: A549 NSCLC
[4] = test system: ACHN renal
[5] = test system: BT-549 breast
[6] = test system: CAKI-1 renal
[7] = test system: CCRF-CEM leukemia
[8] = test system: COLO 205 colon
[9] = test system: DU-145 prostate
[10] = test system: EKVX NSCLC
[11] = test system: HCC-2998 colon
[12] = test system: HCT-116 colon
[13] = test system: HCT-15 colon
[14] = test system: HL-60(TB) leukemia
[15] = test system: HOP-62 NSCLC
[16] = test system: HOP-92 NSCLC
[17] = test system: HS 578T breast
[18] = test system: HT29 colon
[19] = test system: IGROV1 ovarian
[20] = test system: K-562 leukemia
[21] = test system: KM12 colon
[22] = test system: LOX IMVI melanoma
[23] = test system: M14 melanoma
[24] = test system: MALME-3M melanoma
[25] = test system: MCF7 breast
[26] = test system: MDA-MB-231 breast
[27] = test system: MDA-MB-435
[28] = test system: MOLT-4 leukemia
[29] = test system: NCI-H226 lung
[30] = test system: NCI-H23 lung
[31] = test system: NCI-H460 lung
[32] = test system: NCI-H522 lung
[33] = test system: NCI/ADR-RES ovarian
[34] = test system: OVCAR-3 ovarian
[35] = test system: OVCAR-4 ovarian
[36] = test system: OVCAR-5 ovarian
[37] = test system: OVCAR-8 ovarian
[38] = test system: PC-3 prostate
[39] = test system: SF-268 CNS
[40] = test system: SF-295 CNS
[41] = test system: SF-539 CNS
[42] = test system: SK-MEL-2 melanoma
[43] = test system: SK-MEL-28 melanoma
[44] = test system: SK-MEL-5 melanoma
[45] = test system: SK-OV-3 ovarian
[46] = test system: SN12C renal
[47] = test system: SNB-19 CNS
[48] = test system: SNB-75 CNS
[49] = test system: SR leukemia
[50] = test system: SW-620 colon
[51] = test system: T-47D breast
[52] = test system: TK-10 renal
[53] = test system: UACC-257 melanoma
[54] = test system: UACC-62 melanoma
[55] = test system: UO-31 renal
[56] = test system: RPMI-8226 leukemia
[57] = test system: RXF 393 renal
[58] = test system: U251 CNS

CCN(CC)c1ccc(/C=C2\SC(=O)C(Nc3nnc(-c4cccnc4SCc4ccccc4)o3)C2=O)cc1 (stereo not given)
GI50 [1]: 9.51 µM
TGI [1]: > 100 µM
GI50 [2]: 1.76 µM
TGI [2]: 8.2 µM
GI50 [3]: 3.98 µM
TGI [3]: > 100 µM
GI50 [4]: 6.78 µM
TGI [4]: > 100 µM
GI50 [5]: 12 µM
TGI [5]: 59.3 µM
GI50 [6]: 4.43 µM
TGI [6]: > 100 µM
GI50 [7]: 3.37 µM
TGI [7]: > 100 µM
GI50 [8]: 2.19 µM
TGI [8]: 4.65 µM
GI50 [9]: 2.76 µM
TGI [9]: 6.92 µM
GI50 [10]: 6.72 µM
TGI [10]: > 100 µM
GI50 [11]: 2.99 µM
TGI [11]: 10.4 µM
GI50 [12]: 3.53 µM
TGI [12]: > 100 µM
GI50 [13]: 3.83 µM
TGI [13]: > 100 µM
GI50 [14]: 3.88 µM
TGI [14]: > 100 µM
GI50 [15]: 4.32 µM
TGI [15]: 24.9 µM
GI50 [16]: 2.58 µM
TGI [16]: 35 µM
GI50 [17]: 2.61 µM
TGI [17]: 8.77 µM
GI50 [18]: 3.63 µM
TGI [18]: > 100 µM
GI50 [19]: 10.9 µM
TGI [19]: 56.8 µM
GI50 [20]: 3.24 µM
TGI [20]: > 100 µM
GI50 [21]: 3.64 µM
TGI [21]: 28.4 µM
GI50 [22]: 3.76 µM
TGI [22]: > 100 µM
GI50 [23]: 3.24 µM
TGI [23]: 13.5 µM
GI50 [24]: 4.12 µM
TGI [24]: > 100 µM
GI50 [25]: 3.01 µM
TGI [25]: > 100 µM
GI50 [26]: 2.34 µM
TGI [26]: 10.4 µM
GI50 [27]: 2.18 µM
TGI [27]: 5.81 µM
GI50 [28]: 3.53 µM
TGI [28]: > 100 µM
GI50 [29]: 9.41 µM
TGI [29]: 57.6 µM
GI50 [30]: 2.58 µM
TGI [30]: 8.62 µM
GI50 [31]: 3.21 µM
TGI [31]: > 100 µM
GI50 [32]: 3.15 µM
TGI [32]: 9.67 µM
GI50 [33]: 3.7 µM
TGI [33]: > 100 µM
GI50 [34]: 2.77 µM
TGI [34]: 6.29 µM
GI50 [35]: 5.19 µM
TGI [35]: > 100 µM
GI50 [36]: 5.1 µM
TGI [36]: > 100 µM
GI50 [37]: 4 µM
TGI [37]: > 100 µM
GI50 [38]: 3.34 µM
TGI [38]: > 100 µM
GI50 [39]: 6.8 µM
TGI [39]: > 100 µM
GI50 [40]: 3.2 µM
TGI [40]: 85.6 µM
GI50 [41]: 3.21 µM
TGI [41]: 15.5 µM
GI50 [42]: 10.1 µM
TGI [42]: 53.2 µM
GI50 [43]: 5.29 µM
TGI [43]: 36.7 µM
GI50 [44]: 3.85 µM
TGI [44]: 14.4 µM
GI50 [45]: 3.34 µM
TGI [45]: 19.9 µM
GI50 [46]: 4.11 µM
TGI [46]: > 100 µM
GI50 [47]: 6.59 µM
TGI [47]: > 100 µM
GI50 [48]: 2.56 µM
TGI [48]: 42.2 µM
GI50 [49]: 3.29 µM
TGI [49]: > 100 µM
GI50 [50]: 3.94 µM
TGI [50]: > 100 µM
GI50 [51]: 12.8 µM
TGI [51]: 89.7 µM
GI50 [52]: 22.3 µM
TGI [52]: > 100 µM
GI50 [53]: 16.6 µM
TGI [53]: > 100 µM
GI50 [54]: 4.2 µM
TGI [54]: 27.4 µM
GI50 [55]: 5.42 µM
TGI [55]: > 100 µM

COc1ccc(S(=O)(=O)Nc2cc(/C=C\c3cc(OC)c(OC)c(OC)c3)cc(OC)c2OC)cc1
GI50 [1]: 0.0579 µM
TGI [1]: 22.6 µM
GI50 [2]: 0.0217 µM
TGI [2]: 0.0924 µM
GI50 [3]: 0.0474 µM
TGI [3]: > 100 µM
GI50 [4]: 0.057 µM
TGI [4]: 23.2 µM
GI50 [5]: 0.0425 µM
TGI [5]: 79 µM
GI50 [6]: 0.0531 µM
TGI [6]: 30.9 µM
GI50 [7]: 0.0329 µM
TGI [7]: > 100 µM
GI50 [8]: 0.0214 µM
TGI [8]: 0.0459 µM
GI50 [9]: 0.0416 µM
TGI [9]: > 100 µM
GI50 [11]: 0.0391 µM
TGI [11]: > 100 µM
GI50 [12]: 0.035 µM
TGI [12]: > 100 µM
GI50 [13]: 0.0358 µM
TGI [13]: > 100 µM
GI50 [14]: 0.0234 µM
TGI [14]: 0.0635 µM
GI50 [15]: 0.0408 µM
TGI [15]: > 100 µM
GI50 [16]: 1.76 µM
TGI [16]: 82.3 µM
GI50 [17]: 0.0452 µM
TGI [17]: > 100 µM
GI50 [18]: 0.0331 µM
TGI [18]: 0.122 µM
GI50 [19]: 0.0577 µM
TGI [19]: > 100 µM
GI50 [20]: 0.0272 µM
TGI [20]: 48.2 µM
GI50 [21]: 0.0397 µM
TGI [21]: > 100 µM
GI50 [22]: 0.05 µM
TGI [22]: > 100 µM
GI50 [23]: 0.0301 µM
TGI [23]: > 100 µM
GI50 [24]: 12.6 µM
TGI [24]: 97.3 µM
GI50 [25]: 0.036 µM
TGI [25]: > 100 µM
GI50 [26]: 0.0479 µM
TGI [26]: > 100 µM
GI50 [27]: 0.0211 µM
TGI [27]: 0.0482 µM
GI50 [28]: 0.0495 µM
TGI [28]: > 100 µM
GI50 [29]: 27.3 µM
TGI [29]: > 100 µM
GI50 [30]: 0.0593 µM
TGI [30]: > 100 µM
GI50 [31]: 0.0367 µM
TGI [31]: 17 µM
GI50 [32]: 0.0197 µM
TGI [32]: 0.052 µM
GI50 [33]: 0.0353 µM
TGI [33]: 81.5 µM
GI50 [34]: 0.0345 µM
TGI [34]: 0.0977 µM
GI50 [35]: 0.0842 µM
TGI [35]: > 100 µM
GI50 [36]: 0.0499 µM
TGI [36]: > 100 µM
GI50 [37]: 0.0459 µM
TGI [37]: > 100 µM
GI50 [38]: 0.038 µM
TGI [38]: > 100 µM
GI50 [56]: 0.0459 µM
TGI [56]: 13.2 µM
GI50 [57]: 0.0401 µM
TGI [57]: 72.4 µM
GI50 [39]: 0.0575 µM
TGI [39]: > 100 µM
GI50 [40]: 0.0311 µM
TGI [40]: > 100 µM
GI50 [42]: 0.0374 µM
TGI [42]: 63.3 µM
GI50 [43]: 0.0765 µM
TGI [43]: > 100 µM
GI50 [44]: 0.0359 µM
TGI [44]: 0.168 µM
GI50 [46]: 0.0698 µM
TGI [46]: > 100 µM
GI50 [47]: 0.0601 µM
TGI [47]: > 100 µM
GI50 [48]: 0.0265 µM
TGI [48]: > 100 µM
GI50 [49]: 0.0352 µM
TGI [49]: 2.37 µM
GI50 [50]: 0.0439 µM
TGI [50]: > 100 µM
GI50 [51]: 5.21 µM
TGI [51]: > 100 µM
GI50 [52]: 0.065 µM
TGI [52]: 78 µM
GI50 [58]: 0.0357 µM
TGI [58]: > 100 µM
GI50 [53]: 4.1 µM
TGI [53]: 98.9 µM
GI50 [54]: 0.0461 µM
TGI [54]: 69.4 µM
GI50 [55]: 0.0635 µM
TGI [55]: 85.3 µM
